± gives the standard deviation of the averaged measurements.
Experiments:
[1] = compound: Cc1c(N)nc([C@H](CC(N)=O)NC[C@H](N)C(N)=O)nc1C(=O)N[C@H](C(=O)N[C@H](C)[C@@H](O)[C@H](C)C(=O)N[C@H](C(=O)NCCc1nc(-c2nc(C(=O)NCCC[S+](C)C)cs2)cs1)[C@@H](C)O)[C@@H](OC1OC(CO)C(O)C(O)C1OC1OC(CO)C(O)C(OC(N)=O)C1O)c1cnc[nH]1 [BLEOMYCIN]; assay: surviving fraction relative to DMSO-only wells; higher = less growth inhibition; conditions: exposure time: 5 days
Summary of the method: (§1)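 Lines were retained only if, across three screens, replicate Pearson r was >0.7 and median Z' was >0.3. Viability was measured as CellTiter-Glo luminescence and reported as surviving fraction relative to the median of DMSO-only wells. Readings followed 10 minutes at room temperature, after log-phase tumour cells seeded at 250–500 per well in 384-well plates had been exposed, from 24 hours after seeding, continuously for five days to inhibitors at 0.5, 1, 5, 10, 50, 100, 500 and 1000 nM.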

[2] = compound: Cn1ncnc1[C@H]1c2n[nH]c(=O)c3cc(F)cc(c23)N[C@@H]1c1ccc(F)cc1 [BMN-673]; assay: as above; conditions: exposure time: 5 days
Summary of the method: as §1

| Test System | surviving fraction ([1]; 0.5 nM) | surviving fraction ([1]; 1 nM) | surviving fraction ([1]; 5 nM) | surviving fraction ([1]; 10 nM) | surviving fraction ([1]; 50 nM) | surviving fraction ([1]; 100 nM) | surviving fraction ([1]; 500 nM) | surviving fraction ([1]; 1000 nM) | surviving fraction ([2]; 0.5 nM) | surviving fraction ([2]; 1 nM) | surviving fraction ([2]; 5 nM) | surviving fraction ([2]; 10 nM) | surviving fraction ([2]; 50 nM) | surviving fraction ([2]; 100 nM) | surviving fraction ([2]; 500 nM) | surviving fraction ([2]; 1000 nM) |
| --- | --- | --- | --- | --- | --- | --- | --- | --- | --- | --- | --- | --- | --- | --- | --- | --- |
| 22RV1 PROSTATE | 0.962 ± 0.044 | 0.979 ± 0.053 | 0.962 ± 0.029 | 0.887 ± 0.026 | 0.922 ± 0.0089 | 0.886 ± 0.051 | 0.738 ± 0.032 | 0.573 ± 0.088 | 1.06 ± 0.073 | 1.01 ± 0.11 | 0.871 ± 0.14 | 0.776 ± 0.18 | 0.657 ± 0.09 | 0.64 ± 0.037 | 0.468 ± 0.061 | 0.324 ± 0.048 |
| 93VU HEADNECK | 0.8 ± 0.006 | 0.83 ± 0.058 | 0.785 ± 0.011 | 0.783 ± 0.015 | 0.764 ± 0.058 | 0.633 ± 0.023 | 0.386 ± 0.025 | 0.327 ± 0.066 | 1.07 ± 0.071 | 1.14 ± 0.11 | 1.07 ± 0.14 | 0.983 ± 0.056 | 0.98 ± 0.084 | 0.925 ± 0.018 | 0.806 ± 0.087 | 0.632 ± 0.053 |
| 143B BONE | 0.978 ± 0.023 | 0.98 ± 0.023 | 0.995 ± 0.012 | 1.01 ± 0.042 | 0.946 ± 0.0014 | 0.977 ± 0.0014 | 0.82 ± 0.03 | 0.612 ± 0.028 | 1.08 ± 0.047 | 1.11 ± 0.086 | 1.1 ± 0.054 | 1.09 ± 0.073 | 1.11 ± 0.16 | 1.05 ± 0.064 | 0.733 ± 0.06 | 0.528 ± 0.052 |
| A549 LUNG | 0.932 ± 0.023 | 0.94 ± 0.032 | 0.956 ± 0.023 | 0.915 ± 0.046 | 1 ± 0.042 | 1.01 ± 0.018 | 0.825 ± 0.019 | 0.593 ± 0.032 | 1.08 ± 0.026 | 1.1 ± 0.014 | 1.08 ± 0.033 | 1.07 ± 0.028 | 1.13 ± 0.08 | 1.1 ± 0.025 | 1.05 ± 0.043 | 0.972 ± 0.048 |
| ASKA SYNOVIAL | 0.897 ± 0.1 | 0.895 ± 0.046 | 0.94 ± 0.096 | 0.931 ± 0.028 | 0.811 ± 0.027 | 0.689 ± 0.026 | 0.427 ± 0.029 | 0.343 ± 0.015 | 0.846 ± 0.056 | 0.753 ± 0.041 | 0.625 ± 0.043 | 0.602 ± 0.024 | 0.54 ± 0.062 | 0.427 ± 0.036 | 0.342 ± 0.015 | 0.334 ± 0.016 |
| BT20 BREAST | 0.766 ± 0.062 | 0.742 ± 0.02 | 0.718 ± 0.045 | 0.768 ± 0.06 | 0.849 ± 0.071 | 0.688 ± 0.14 | 0.48 ± 0.087 | 0.353 ± 0.042 | 1.22 ± 0.014 | 1.15 ± 0.11 | 1.04 ± 0.034 | 0.971 ± 0.052 | 0.88 ± 0.035 | 0.797 ± 0.074 | 0.673 ± 0.13 | 0.474 ± 0.08 |
| BT549 BREAST | 0.82 ± 0.091 | 0.818 ± 0.16 | 0.637 ± 0.1 | 0.599 ± 0.11 | 0.421 ± 0.053 | 0.304 ± 0.053 | 0.121 ± 0.011 | 0.122 ± 0.048 | 1.07 ± 0.05 | 1.03 ± 0.019 | 1.03 ± 0.11 | 0.797 ± 0.044 | 0.755 ± 0.051 | 0.652 ± 0.079 | 0.438 ± 0.04 | 0.323 ± 0.019 |
| C33A CERVIX | 0.925 ± 0.11 | 0.98 ± 0.039 | 0.984 ± 0.13 | 0.827 ± 0.062 | 0.435 ± 0.014 | 0.334 ± 0.02 | 0.163 ± 0.015 | 0.124 ± 0.01 | 0.995 ± 0.028 | 0.968 ± 0.019 | 0.744 ± 0.079 | 0.655 ± 0.046 | 0.422 ± 0.035 | 0.332 ± 0.051 | 0.19 ± 0.015 | 0.172 ± 0.023 |
| CADOES1 SOFT TISSUE | 0.943 ± 0.079 | 0.967 ± 0.089 | 0.789 ± 0.12 | 0.776 ± 0.067 | 0.683 ± 0.051 | 0.503 ± 0.14 | 0.285 ± 0.019 | 0.116 ± 0.017 | 0.979 ± 0.076 | 0.942 ± 0.05 | 0.745 ± 0.18 | 0.653 ± 0.094 | 0.378 ± 0.054 | 0.29 ± 0.027 | 0.135 ± 0.033 | 0.073 ± 0.013 |
| CAL51 BREAST | 0.911 ± 0.036 | 0.893 ± 0.052 | 0.904 ± 0.018 | 0.884 ± 0.014 | 0.729 ± 0.043 | 0.621 ± 0.037 | 0.273 ± 0.016 | 0.17 ± 0.011 | 0.941 ± 0.037 | 0.807 ± 0.065 | 0.548 ± 0.014 | 0.389 ± 0.021 | 0.219 ± 0.026 | 0.146 ± 0.027 | 0.0603 ± 0.01 | 0.0523 ± 0.0019 |
| CAL72 BONE | 1.03 ± 0.032 | 1.02 ± 0.028 | 1 ± 0.044 | 1 ± 0.05 | 1.04 ± 0.04 | 1.01 ± 0.037 | 0.694 ± 0.066 | 0.556 ± 0.013 | 1.08 ± 0.13 | 1.07 ± 0.027 | 1.07 ± 0.018 | 1.09 ± 0.09 | 1.07 ± 0.082 | 0.973 ± 0.22 | 0.776 ± 0.19 | 0.509 ± 0.21 |
| CAL120 BREAST | 0.901 ± 0.028 | 0.926 ± 0.022 | 0.903 ± 0.013 | 0.9 ± 0.023 | 0.819 ± 0.023 | 0.767 ± 0.021 | 0.546 ± 0.027 | 0.399 ± 0.0084 | 0.968 ± 0.033 | 0.915 ± 0.067 | 0.798 ± 0.05 | 0.676 ± 0.035 | 0.591 ± 0.014 | 0.506 ± 0.062 | 0.43 ± 0.021 | 0.425 ± 0.035 |
| CASKI CERVIX | 0.763 ± 0.063 | 0.767 ± 0.057 | 0.7 ± 0.051 | 0.636 ± 0.088 | 0.691 ± 0.023 | 0.612 ± 0.051 | 0.229 ± 0.018 | 0.141 ± 0.0035 | 0.942 ± 0.03 | 0.888 ± 0.063 | 0.9 ± 0.036 | 0.88 ± 0.06 | 0.858 ± 0.054 | 0.821 ± 0.068 | 0.594 ± 0.0084 | 0.502 ± 0.02 |
| CHLA90 AUTONOMIC GANGLIA | 0.941 ± 0.057 | 0.925 ± 0.035 | 0.906 ± 0.067 | 0.868 ± 0.025 | 0.864 ± 0.039 | 0.865 ± 0.021 | 0.827 ± 0.018 | 0.796 ± 0.032 | 0.939 ± 0.01 | 0.982 ± 0.068 | 0.906 ± 0.051 | 0.897 ± 0.045 | 0.938 ± 0.086 | 0.906 ± 0.083 | 0.814 ± 0.04 | 0.714 ± 0.026 |
| CME SYNOVIAL | 0.718 ± 0.14 | 0.749 ± 0.16 | 0.742 ± 0.12 | 0.513 ± 0.081 | 0.265 ± 0.021 | 0.293 ± 0.036 | 0.211 ± 0.0078 | 0.203 ± 0.0091 | 0.831 ± 0.068 | 0.528 ± 0.039 | 0.234 ± 0.018 | 0.211 ± 0.035 | 0.243 ± 0.024 | 0.211 ± 0.012 | 0.201 ± 0.0059 | 0.285 ± 0.0076 |
| COLO320DM LARGE INTESTINE | 1.09 ± 0.042 | 0.972 ± 0.025 | 1.03 ± 0.058 | 1.04 ± 0.099 | 1.15 ± 0.22 | 0.89 ± 0.052 | 0.868 ± 0.057 | 0.675 ± 0.024 | 1.16 ± 0.049 | 1.1 ± 0.11 | 1.01 ± 0.038 | 0.951 ± 0.04 | 0.781 ± 0.061 | 0.704 ± 0.059 | 0.606 ± 0.0097 | 0.5533 ± 0.0029 |
| DU4475 BREAST | 0.675 ± 0.13 | 0.792 ± 0.17 | 0.774 ± 0.2 | 0.77 ± 0.075 | 0.742 ± 0.13 | 0.62 ± 0.1 | 0.49 ± 0.11 | 0.378 ± 0.13 | 1.1 ± 0.049 | 0.916 ± 0.11 | 0.57 ± 0.055 | 0.456 ± 0.071 | 0.325 ± 0.068 | 0.278 ± 0.054 | 0.284 ± 0.052 | 0.293 ± 0.027 |
| H23 LUNG | 0.955 ± 0.013 | 0.954 ± 0.032 | 0.886 ± 0.057 | 0.763 ± 0.028 | 0.509 ± 0.026 | 0.338 ± 0.0076 | 0.193 ± 0.014 | 0.118 ± 0.011 | 1.07 ± 0.04 | 1.07 ± 0.056 | 1.06 ± 0.054 | 0.937 ± 0.014 | 0.779 ± 0.024 | 0.688 ± 0.055 | 0.507 ± 0.23 | 0.238 ± 0.02 |
| HCC78 LUNG | 0.839 ± 0.12 | 0.932 ± 0.32 | 0.892 ± 0.2 | 0.774 ± 0.39 | 0.376 ± 0.14 | 0.499 ± 0.13 | 0.202 ± 0.075 | 0.0983 ± 0.032 | 1.06 ± 0.077 | 1 ± 0.097 | 1.04 ± 0.098 | 0.931 ± 0.21 | 0.678 ± 0.19 | 0.47 ± 0.084 | 0.117 ± 0.013 | 0.0383 ± 0.013 |
| HCC202 BREAST | 1.13 ± 0.17 | 1.18 ± 0.095 | 1.09 ± 0.49 | 1.02 ± 0.14 | 1.1 ± 0.11 | 0.992 ± 0.17 | 0.862 ± 0.25 | 0.738 ± 0.1 | 0.932 ± 0.39 | 1.15 ± 0.44 | 0.688 ± 0.18 | 0.769 ± 0.34 | 0.661 ± 0.13 | 0.566 ± 0.14 | 0.81 ± 0.05 | 0.671 ± 0.11 |

Source: the supplement of paper PMC6045584
